{"source": "ChEMBL document CHEMBL5528078", "about": "“Structural Basis for Molecular Recognition of Cannabinoids by Inhibitory Cys-Loop Channels” (J Med Chem, 2024)", "key": {"[1]": {"molecular_target": "T1, Glycine receptor subunit alpha-1 (Homo sapiens, UniProt P23415)", "T1 sequence (P23415 whole entry)": "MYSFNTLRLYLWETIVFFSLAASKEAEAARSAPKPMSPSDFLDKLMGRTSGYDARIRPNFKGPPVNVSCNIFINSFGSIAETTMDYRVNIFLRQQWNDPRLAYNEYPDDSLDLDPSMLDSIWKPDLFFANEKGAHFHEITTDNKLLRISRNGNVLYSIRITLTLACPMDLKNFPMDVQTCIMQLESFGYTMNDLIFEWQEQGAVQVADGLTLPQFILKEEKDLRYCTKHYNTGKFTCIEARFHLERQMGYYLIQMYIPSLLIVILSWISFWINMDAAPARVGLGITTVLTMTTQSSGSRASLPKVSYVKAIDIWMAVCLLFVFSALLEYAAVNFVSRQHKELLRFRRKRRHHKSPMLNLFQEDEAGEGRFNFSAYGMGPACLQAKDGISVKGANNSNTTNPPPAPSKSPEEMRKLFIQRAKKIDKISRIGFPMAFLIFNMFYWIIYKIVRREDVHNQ", "test": "Inhibition of human […] glycine receptor alpha 1 expressed in HEK293 cells", "format": "cell-based"}, "[2]": {"test": "Cytotoxicity against HEK293 cells assessed as inhibition of cell growth incubated for 48 hrs by CCK8 assay", "format": "toxicity, cell-based", "settings": "human"}, "[3]": {"molecular_target": "T2, Glycine receptor subunit alpha-2 (Homo sapiens, UniProt P23416)", "T2 sequence (P23416 whole entry)": "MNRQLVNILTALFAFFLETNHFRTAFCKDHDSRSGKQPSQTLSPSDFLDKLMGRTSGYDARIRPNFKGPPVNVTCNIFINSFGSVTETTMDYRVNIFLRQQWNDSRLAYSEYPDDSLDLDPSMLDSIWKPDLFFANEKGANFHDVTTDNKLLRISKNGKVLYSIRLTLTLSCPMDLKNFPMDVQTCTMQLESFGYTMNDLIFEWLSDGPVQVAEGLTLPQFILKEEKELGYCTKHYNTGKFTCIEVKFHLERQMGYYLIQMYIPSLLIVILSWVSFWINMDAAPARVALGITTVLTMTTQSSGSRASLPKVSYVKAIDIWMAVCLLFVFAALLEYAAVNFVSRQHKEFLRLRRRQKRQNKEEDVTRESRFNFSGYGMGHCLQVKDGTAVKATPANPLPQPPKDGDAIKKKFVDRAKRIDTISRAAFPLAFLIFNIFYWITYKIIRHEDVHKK", "test": "Inhibition of human […] glycine receptor alpha 2 expressed in HEK293 cells", "format": "cell-based"}, "[4]": {"test": "Inhibition of […] glycine receptor (unknown origin) expressed in HEK293 cells", "format": "cell-based, Homo sapiens"}}, "note": "pIC50: −log10 of the molar value.", "data": [{"compound": "CCCCCCC(C)(C)c1cc(O)c2c(c1)OC(C)(C)[C@@H]1CC=C(CO)C[C@@H]21", "values": [{"measurement": "pIC50", "setting": "[1]", "result": 5.57}]}, {"compound": "C=C(C)[C@@H]1CCC(C)=C[C@H]1c1c(O)cc(CCCCC)cc1O", "note": "[CANNABIDIOL]", "values": [{"measurement": "EC50 at 48 h", "setting": "[2]", "result": 12, "unit": "µM"}, {"measurement": "pIC50", "setting": "[3]", "result": 5.57}]}, {"compound": "CCCCCc1cc(O)c2c(c1)OC(C)(C)[C@@H]1CCC(C)=C[C@@H]21", "note": "[DRONABINOL]", "values": [{"measurement": "pIC50", "setting": "[4]", "result": 5.57}]}]}
